Test results from US12428428B2, “Tricyclic tetrahydroisoquinoline derivative, preparation method therefor and application thereof in medicine” (JIANGSU HENGRUI MEDICINE CO., LTD., priority 2020, dated 2025).

What was measured:
ERα = ERα (Homo sapiens (Human), UniProt P03372); assay: Degradation of ERα in MCF-7 cells (ELISA); assay type: cell-based; set-up: Dmax: dose or concentration left out as unconfirmed; details: for Dmax at 3 µM: MCF7, read-out: Emax degradation (%); for DC50: MCF-7 cells, 16 to 18 h, read-out: EC50 (nM), degradation of ERα
Method: ERα-positive breast cancer cell line MCF-7 cells were cultured in a DMEM/F12 medium (HyClone, SH30023.01) containing 10% fetal bovine serum (Corning, 35-010-CV). […] The following day the compounds were serially diluted with DMSO and further diluted with the phenol red-free DMEM/F12 medium containing 5% charcoal-stripped fetal bovine serum. 20 μL of a diluted compound was added to each well of the 48-well plate at final concentrations of 3000, 300, 30, 3, 0.3, 0.03 and 0.003 nM. The 48-well plate was placed in the incubator for 16 to 18 h. A 96-well plate was coated with the capture antibody from the human ERα/NR3A1 total protein assay kit (R&D, DYC5715-5). […] The plate was placed in an incubator at 26° C. overnight. On day 3, the antibody-coated 96-well plate was washed once with PBS, and 200 μL of PBS containing 1% BSA was added to each well. The plate was incubated in an incubator at 37° C. for 1.5 h to be blocked. The cell culture medium supernatant was discarded. The cells were washed once with PBS, and 60 μL of a cell lysis buffer was added to each well. […] The cells were lysed on ice for 15 min, and 300 μL of PBS containing 1 mM EDTA and 0.5% TritonX-100 was added to each well to dilute the urea to 1 M. The blocking buffer in the blocked 96-well plate was discarded, and 100 μL of diluted cell lysis buffer was added to each well. The plate was incubated in an incubator at 37° C. for 2 h and washed 5 times with PBS. A biotinylated assay antibody was diluted to 0.4 μg/mL with PBS containing 1% BSA, and then 100 μL of the assay antibody was added to each well. The plate was incubated in an incubator at 37° C. for 1 h. The plate was then washed five more times, and 100 μL of avidin-HRP diluted 200-fold with PBS containing 1% BSA was added to each well. The plate was incubated at 37° C. for 30 min. The plate was washed five more times, and 100 μL of TMB substrate was added to each well. The plate was incubated at room temperature until blue color appeared, and 100 μL of stop solution was added to each well. OD450 signal values were read using a PHERAstar multi-mode microplate reader. The IC50 values for the inhibitory activity of the compounds were calculated using Graphpad Prism software.

ER (estrogen receptor) = ER (estrogen receptor) (Homo sapiens (Human), UniProt P03372); assay: Inhibition of binding of E to ER (MCF-7/ERE-luciferase reporter cells); assay type: cell-based; details: MCF-7/ERE-luciferase cells, 0.1 nM estradiol, 24 h
Method: The compounds of the present disclosure can inhibit the binding of E (estrogen) to ER (estrogen receptor), thereby blocking the binding of the complex of E and ER to ERE (estrogen response element), and consequently the expression of downstream luciferase proteins. The inhibitory effects of the compounds of the present disclosure on the binding of E to ER was tested by using the following method.
An ERE was cloned upstream of the luciferase gene, and MCF-7/ERE-luciferase monoclonal cells were selected by transfection of MCF-7 (TCHu74, National Collection of Authenticated Cell Cultures). The MCF-7/ERE-luciferase cells were seeded into a 96-well plate with an MEM (hyclone, SH30024.01B) medium containing 10% charcoal stripped FBS (Moregate, FBSF), 1% sodium pyruvate (sigma, S8636), 1% non-essential amino acids (sigma, M7145) and 500 μg/mL G418 at a density of 30,000 cells/well and cultured at 37° C. with 5% CO2. 20 mM stock solutions of the drugs are prepared, serially diluted 10-fold with 100% DMSO, and then diluted 20-fold with the medium. After the cells were cultured for 24 h, the medium was removed. 0.1 nM estradiol (sigma, E2758) and 10 μL of a medium-diluted drug were added to each well, and DMSO was added to the control group. The mixtures were well mixed by gentle shaking. The cells were cultured in an incubator at 37° C. with 5% CO2 for 24 h, and then the cell culture liquid was removed, followed by the addition of 50 μL of a luciferase substrate (Promega, E6110) to each well. The plate was let stand at room temperature in the dark for 10-15 min, and the chemiluminescence signal values were determined.
The inhibitory effects of the compounds of the present disclosure on the binding of E to ER were tested through the above experiment. The chemiluminescence signal value was plotted against the compound concentration (in log form) using Graphpad Prism, and the IC50 values of the compounds were obtained.

ER (estrogen receptor), sequence (P03372 whole entry): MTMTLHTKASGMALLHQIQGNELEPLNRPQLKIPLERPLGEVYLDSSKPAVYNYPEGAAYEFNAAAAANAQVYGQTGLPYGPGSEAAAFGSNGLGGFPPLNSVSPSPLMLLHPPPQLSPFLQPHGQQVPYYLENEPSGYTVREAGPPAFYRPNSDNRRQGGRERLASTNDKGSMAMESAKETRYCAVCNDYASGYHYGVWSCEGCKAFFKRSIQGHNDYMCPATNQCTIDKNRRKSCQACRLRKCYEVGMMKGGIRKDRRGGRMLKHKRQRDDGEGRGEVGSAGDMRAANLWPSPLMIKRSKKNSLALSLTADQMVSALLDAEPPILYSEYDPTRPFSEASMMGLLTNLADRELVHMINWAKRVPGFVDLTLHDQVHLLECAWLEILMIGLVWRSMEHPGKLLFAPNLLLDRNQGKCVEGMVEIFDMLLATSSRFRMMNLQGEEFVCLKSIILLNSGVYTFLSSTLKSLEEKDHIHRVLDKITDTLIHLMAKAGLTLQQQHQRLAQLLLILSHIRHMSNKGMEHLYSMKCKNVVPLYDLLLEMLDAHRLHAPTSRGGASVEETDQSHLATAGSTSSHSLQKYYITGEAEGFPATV
ERα, sequence (P03372 whole entry): as above

Row | SMILES | Dmax at 3 µM (ERα) [%] | DC50 (ERα) [nM] | IC50 (ER (estrogen receptor)) [nM] | Dmax (ERα; MCF7, read-out: Emax degradation (%)) [%]
1 | C[C@@H]1Cc2cc3c(cc2[C@@H](c2ccc(N[C@H]4CCN(CCCF)C4)cc2)N1CC(F)(F)F)OCO3 [Example 1, (S)-1-(3-fluoropropyl)-N-(4-((5R,7R)-7-methyl-6-(2,2,2-trifluoroethyl)-5,6,7,8-tetrahydro-[1,3]dioxolo[4,5-g]isoquinolin-5-yl)phenyl)pyrrolidin-3-amine] | 94 | 0.32 | 0.14 | 
2 | C[C@@H]1Cc2cc3c(cc2[C@@H](c2c(F)cc(N[C@H]4CCN(CCCF)C4)cc2F)N1CC(F)(F)F)OCO3 [Example 2, (S)—N-(3,5-difluoro-4-((5S,7R)-7-methyl-6-(2,2,2-trifluoroethyl)-5,6,7,8-tetrahydro-[1,3]dioxolo[4,5-g]isoquinolin-5-yl)phenyl)-1-(3-fluoropropyl)pyrrolidin-3-amine] | 104 | 0.24 | 0.1 | 
3 | C[C@@H]1Cc2cc3c(cc2[C@@H](c2ccc(N[C@H]4CCN(CCCF)C4)cc2)N1CC(F)(F)CO)OCO3 [Example 3, 2,2-Difluoro-3-((5R,7R)-5-(4-(((S)-1-(3-fluoropropyl)pyrrolidin-3-yl)amino)phenyl)-7-methyl-7,8-dihydro-[1,3]dioxolo[4,5-g]isoquinolin-6(5H)-yl)propan-1-ol] | 129 | 0.19 | 0.44 | 
4 | C[C@@H]1Cc2cc3c(cc2[C@@H](c2ccc(N[C@H]4CCN(CCCF)C4)cn2)N1CC(F)(F)CO)OCO3 [Example 4, 2,2-Difluoro-3-((5S,7R)-5-(5-(((S)-1-(3-fluoropropyl)pyrrolidin-3-yl)amino)pyridin-2-yl)-7-methyl-7,8-dihydro-[1,3]dioxolo[4,5-g]isoquinolin-6(5H)-yl)propan-1-ol] | 115 | 0.21 | 0.37 | 
5 | C[C@@H]1Cc2cc3c(cc2[C@@H](c2c(F)cc(N[C@H]4CCN(CCCF)C4)cc2F)N1CC(F)(F)CO)OCO3 [Example 5, 3-((5S,7R)-5-(2,6-difluoro-4-(((S)-1-(3-fluoropropyl)pyrrolidin-3-yl)amino)phenyl)-7-methyl-7,8-dihydro-[1,3]dioxolo[4,5-g]isoquinolin-6(5H)-yl)-2,2-difluoro-1-propanol] | 108 | 0.04 | 0.05 | 
6 | C[C@@H]1Cc2cc3c(cc2[C@@H](c2ccc(N[C@H]4CCN(CCCF)C4)cn2)N1CC(F)(F)F)OCO3 [Example 6, N—((S)-1-(3-fluoropropyl)pyrrolidin-3-yl)-6-((5S,7R)-7-methyl-6-(2,2,2-trifluoroethyl)-5,6,7,8-tetrahydro-[1,3]dioxolo[4,5-g]isoquinolin-5-yl)pyridin-3-amine] | 104 | 0.17 | 0.27 | 
7 | C[C@@H]1Cc2cc3c(cc2[C@@H](c2ncc(N[C@H]4CCN(CCCF)C4)cc2F)N1CC(F)(F)F)OCO3 [Example 9, 5-Fluoro-N—((S)-1-(3-fluoropropyl)pyrrolidin-3-yl)-6-((5S,7R)-7-methyl-6-(2,2,2-trifluoroethyl)-5,6,7,8-tetrahydro-[1,3]dioxolo[4,5-g]isoquinolin-5-yl)pyridin-3-amine] | 107 | 1.04 | 0.46 | 
8 | C[C@@H]1Cc2cc3c(cc2[C@@H](c2ncc(N[C@H]4CCN(CCCF)C4)cc2F)N1CC(F)(F)CO)OCO3 [Example 11, 2,2-Difluoro-3-((5S,7R)-5-(3-fluoro-5-(((S)-1-(3-fluoropropyl)pyrrolidin-3-yl)amino)pyridin-2-yl)-7-methyl-7,8-dihydro-[1,3]dioxolo[4,5-g]isoquinolin-6(5H)-yl)propan-1-ol] | 91 | 0.45 | 0.35 | 
9 | [2H]C1([2H])Oc2cc3c(cc2O1)[C@@H](c1ccc(N[C@H]2CCN(CCCF)C2)cn1)N(CC(F)(F)CO)[C@H](C)C3 [Example 12, 2,2-Difluoro-3-((5S,7R)-5-(5-(((S)-1-(3-fluoropropyl)pyrrolidin-3-yl)amino)pyridin-2-yl)-7-methyl-7,8-dihydro-[1,3]dioxolo[4,5-g]isoquinolin-6(5H)-yl-2,2-d2)propan-1-ol] | 101 | 0.15 | 1.13 | 
10 | [2H]C1([2H])Oc2cc3c(cc2O1)[C@@H](c1ccc(NC2CN(CCCF)C2)cn1)N(CC(F)(F)CO)[C@H](C)C3 [Example 13, 2,2-Difluoro-3-((5S,7R)-5-(5-((1-(3-fluoropropyl)azetidin-3-yl)amino)pyridin-2-yl)-7-methyl-7,8-dihydro-[1,3]dioxolo[4,5-g]isoquinolin-6(5H)-yl-2,2-d2)propan-1-ol] |  |  |  | 107
11 | C[C@@H]1Cc2cc3c(cc2[C@@H](c2ccc(NC4CN(CCCF)C4)cn2)N1CC(F)(F)CO)OCO3 [Example 14, 2,2-Difluoro-3-((5S,7R)-5-(5-((1-(3-fluoropropyl)azetidin-3-yl)amino)pyridin-2-yl)-7-methyl-7,8-dihydro-[1,3]dioxolo[4,5-g]isoquinolin-6(5H)-yl)propan-1-ol] | 92 | 0.5 | 0.5 | 
12 | C[C@@H]1Cc2cc3c(cc2[C@@H](c2c(F)cc(O[C@H]4CCN(CCCF)C4)cc2F)N1CC(F)(F)F)OCO3 [Example 15, (5S,7R)-5-(2,6-difluoro-4-(((S)-1-(3-fluoropropyl)pyrrolidin-3-yl)oxy)phenyl)-7-methyl-6-(2,2,2-trifluoroethyl)-5,6,7,8-tetrahydro-[1,3]dioxolo[4,5-g]isoquinoline] | 95 | 0.15 | 0.19 | 
13 | C[C@@H]1Cc2cc3c(cc2[C@@H](c2ccc(NC4CN(CCCF)C4)cn2)N1CC(F)(F)F)OCO3 [Example 17, N-(1-(3-fluoropropyl)azetidin-3-yl)-6-((5S,7R)-7-methyl-6-(2,2,2-trifluoroethyl)-5,6,7,8-tetrahydro-[1,3]dioxolo[4,5-g]isoquinolin-5-yl)pyridin-3-amine] | 104 | 1.24 | 0.43 | 
14 | C[C@@H]1Cc2cc3c(cc2[C@@H](c2ccc(NC4CN(CCCF)C4)cc2)N1CC(F)(F)CO)OCO3 [Example 18, 2,2-Difluoro-3-((5R,7R)-5-(4-((1-(3-fluoropropyl)azetidin-3-yl)amino)phenyl)-7-methyl-7,8-dihydro-[1,3]dioxolo[4,5-g]isoquinolin-6(5H)-yl)propan-1-ol] | 106 | 0.1 | 0.07 | 
15 | [2H]C1([2H])Oc2cc3c(cc2O1)[C@@H](c1ccc(N[C@H]2CCN(CCCF)C2)cc1)N(CC(F)(F)CO)[C@H](C)C3 [Example 19, 2,2-Difluoro-3-((5R,7R)-5-(4-(((S)-1-(3-fluoropropyl)pyrrolidin-3-yl)amino)phenyl)-7-methyl-7,8-dihydro-[1,3]dioxolo[4,5-g]isoquinolin-6(5H)-yl-2,2-d2)propan-1-ol] | 100 | 0.13 | 0.07 | 
